# Results: patent publication US8586125B2, “Thermal treatment of an implantable medical device” (Advanced Cardiovascular Systems, Inc., priority 1999, dated 2013)
# Several values for one entry are separate records, joined by “and”; a condition that tells them apart may be missing. Equal entries are not always repeated. Where two headings read alike, the source gives them in different places. Starred links: 1 amine or outer side, 2 acyl side, 3 side chain; linkers in the order of their positions; H or OH if unused. Positions of bridges follow the written chain, without caps; N, C: chain ends. Non-standard residues stand in square brackets, D forms with d. Residues, ends and D or L forms follow the SMILES beside them. Chains are numbered I, II in the order given. Actinocin(9to1) = Cc1c2oc3c(C)ccc(C(=O)[*:1])c3nc-2c(C(=O)[*:2])c(N)c1=O; NMeV = CN[C@H](C(=O)O)C(C)C; Sar = CNCC(=O)O
# Experiments:
# [1] = 24 hour elution of vinblastine from EVOH coated stents in phosphated saline solution, HPLC; type: physicochemical; conditions: for Total microgram Released / microgram Release per Hour / microgram Released: Unsterilized stent
# Description: Multi-Link™ stents were cleaned by placement in an ultrasonic bath of isopropyl alcohol solution for 10 minutes. The stents were dried and plasma cleaned in a plasma chamber. An EVOH solution was made with 1 gram of EVOH and 7 grams of DMSO, making an EVOH:DMSO ratio of 1:7. Vinblastine was added to the 1:7 EVOH:DMSO solution. Vinblastine constituted 2.5% by weight of the total weight of the solution. The solution was vortexed and placed in a tube. The cleaned Multi-Link™ stents were attached to mandrel wires and dipped into the solution. The coated stents were passed over a hot plate, for about 3-5 seconds, with a temperature setting of about 60° C. The coated stents were cured for 6 hours in an air box then placed in a vacuum oven at 60° C. for 24 hours. The above process was repeated twice, having a total of three layers. The average weight of the coating was 0.00005 gram, with an estimated vinblastine concentration of 12 microgram per stent. Some of the stents were sterilized by electron beam radiation. The sterilized and unsterilized vinblastine coated stents were tested for a 24 hour elution period by placing one sterilized and one unsterilized stent in 5 ml of phosphated saline solution (pH 7.4) at room temperature with rotational motion. The amount of vinblastine eluted was evaluated by High Performance Liquid Chromatography (HPLC) analysis. The results of this test are given below and plotted in FIG. 7.
# [2] = system: Medial smooth muscle cells (SMC); assay: Inhibition of SMC proliferation, thymidine incorporation; type: cell-based; conditions: Rattus norvegicus, read-out: IC50 (concentration at which 50% of the cells stop proliferating)
# Description: Medial smooth muscle cells (SMC) were isolated from rat aorta and cultured according to explant methods known to one of ordinary skill in the art. Cells were harvested via trypsinization and subcultivated. Cells were identified as vascular SMC through their characteristic hill-and-valley growth pattern as well as indirect immunofluorescence with monoclonal anti SMC α-actin. Studies were performed with cells at passage 3-4. SMC monolayers were established on 24 well culture dishes, scrape wounded and treated with actinomycin D, mytomycin and docetaxel. The cells were exposed to the drug solution of different concentrations for 2 hours and then washed with buffered saline solution. The proliferation of the cells was quantified by standard technique of thymidine incorporation.
# The IC50 (concentration at which 50% of the cells stop proliferating) of actimomycin D was 10^−9M as compared to 5×10^−5M for mitomycin and 10^−6M for docetaxel.
# [3] = system: Porcine Coronary Artery Model; assay: Reduction in restenosis in the porcine coronary artery model, drug delivered with microporous balloon catheter; type: in vivo, Domestic swine; conditions: for Percent Diameter Stenosis (QCA): 28-day endpoint; for Percent Stenosis (IEL area-lumen area)/IEL area / Residual Lumen (Lumen area)/IEL area: histomorphometric
# Description: Porcine coronary models were used to assess the degree of the inhibition of neointimal formation in the coronary arteries of a porcine stent injury model by actinomycin D, delivered with a microporous balloon catheter (1×10^6 pores/mm^2 with sizes ranging from 0.2-0.8 micron).
# The preclinical animal testing was performed in accordance with the NIH Guide for Care and Use of Laboratory Animals. Domestic swine were utilized to evaluate effect of the drug on the inhibition of the neointimal formation. Each testing procedure, excluding the angiographic analysis at the follow-up endpoints, was conducted using sterile techniques. During the study procedure, the activated clotting time (ACT) was monitored regularly to ensure appropriate anticoagulation. Base line blood samples were collected for each animal before initiation of the procedure. Quantitative coronary angiographic analysis (QCA) and intravascular ultrasound (IVUS) analysis was used for vessel size assessment.
# The vessels at the sites of the delivery were denuded by inflation of the PTCA balloons to 1:1 balloon to artery ratio and moving the balloons back and forth 5 times. The drug was delivered to the denuded sites at 3.5 atm (3.61 Kg/sq cm) for 2 minutes using the microporous balloon catheters before stent deployment. The average volume of delivery was about 3.3+/−1.2 ml. Following drug delivery, stents were deployed at the delivery site such that final stent to artery ratio was 1.1:1.
# QCA and IVUS analyses were used for stent deployment guidance. Pre-stenting IVUS measurements of the lumen size at the targeted vessel sites were performed for determination of the balloon (size) inflation pressure. Quantitative analysis of the stented coronary arteries to compare pre-stenting, post-stenting, follow-up minimal luminal diameters, stent recoil, and balloon/stent to artery ratio were performed. Following stent implantation and final angiogram, all devices were withdrawn and the wounds closed; the animals were allowed to recover from anesthesia as managed by the attending veterinarian or animal care professionals at the research center.
# Upon return to the research laboratory at the 28-day endpoint, angiographic assessments were performed. Coronary artery blood flow was assessed and the stented vessels were evaluated to determine minimal lumen diameter. The animals were euthanized following this procedure at the endpoint. Following euthanasia, the hearts were pressure perfusion fixed with formalin and prepared for histological analysis, encompassing light microscopy, and morphometry. Morphometric analysis of the stented arteries included assessment of the position of the stent struts and determination of vessel/lumen areas, percent (%) stenosis, injury scores, intimal and medial areas and intima/media ratios. Percent stenosis is quantitated by the following equation: 100(IEL area−lumen area)/IEL area
# where IEL is the internal elastic lamia.
# The control group of animals received delivery of water instead of the drug. The test group of animals received actinomycin D in two different concentration of 10^−5M and 10^−4M. […] FIGS. 9A and 9B illustrate sample pictures of the histology slides of the coronary vessels from the control and the Dose 1 group, respectively.
# [4] = system: porcine coronary arteries; assay: Positive remodeling: actinomycin D/EVOH coated stents in porcine coronary arteries, 28 days; type: in vivo
# Excerpt: In vivo data is provided illustrated positive remodeling caused by the application of actinomycin D. Stents coated with EVOH impregnated with actinomycin D and a control group of stents coated with EVOH free from actinomycin D were implanted in porcine coronary arteries. The animals were sacrificed at the end of 28 days. […] The index of remodeling was 1.076 (8.54/7.94).
# FIGS. 10A and 10B illustrate sample pictures of the histology slides of the coronary vessels from the control group 64 RCA (Right Coronary […]) and the actinomycin D loaded stent group 68 LAD (Left Anterior Descending), respectively. The stent used was an Advanced Cardiovascular Systems Multi-Link Duet™ (stainless steel). As is illustrated by FIG. 10B, the positive remodeling of EEL 80, caused by the application of actinomycin D, creates a gap between stent struts 82 and EEL 80. Thrombus deposits, illustrated by reference number 84, are formed in the gap over time. The use of a self-expandable stent eliminates the formation of the gap as the stent self-expands in response to the positive remodeling of IEL. Thrombus deposits can be, accordingly, eliminated.
# Actinomycin D induces the positive remodeling of the vessel walls, more particularly positive remodeling of the external elastic lamina (EEL) of a blood vessel wall. Positive remodeling is generally defined as the ability of the vessel walls to structurally adapt, by increasing in lumen size, to chronic stimuli. A positively remodeled lumen wall has a greater diameter or size as compared to a lumen wall which has not been subjected to the remodeling effect. Accordingly, the flow of blood through the remodeled site is increased—flow which would have otherwise been reduced because of, for example, the presence of plaque build-up or migration and proliferation of cells. The index of remodeling is defined by the ratio of the area circumscribed by the EEL of the lesion site to the area circumscribed by the EEL of a reference site. As a result of the positive remodeling of the EEL, the internal elastic lamina (IEL), in response, can also increases in area or diameter. Actinomycin D, or analogs or derivative thereof, not only can inhibit abnormal or inappropriate migration and/or proliferation of smooth muscle cells, which can lead to restenosis, but can also induce positive remodeling of the blood vessel walls. Thus the widening of the diseased region becomes more pronounced.
# [5] = Sterilized stent, Time 0.5 Hours
# [6] = Sterilized stent, Time 24 Hours
# [7] = average of vessel sections, 28 days
# [8] = individual vessel sections (ID # animal, artery, d/m/p), 28 days
# [9] = 2 hours drug exposure, scrape wounded SMC monolayers, passage 3-4
compound,measurement,setting,value
CC[C@]1(O)C[C@@H]2CN(CCc3c([nH]c4ccccc34)[C@@](C(=O)OC)(c3cc4c(cc3OC)N(C)[C@H]3[C@@](O)(C(=O)OC)[C@H](OC(C)=O)[C@]5(CC)C=CCN6CC[C@]43[C@@H]65)C2)C1 [Vinblastine],μg Release,"[1]; Sterilized (electron beam) stent, Time 0 Hours",0 µg
same,Total μg Released,"[1]; Sterilized stent, Time 0 Hours",0 µg
same,μg Release per Hour,"[1]; Sterilized stent, Time 0 Hours",0 μg per Hour
same,Total μg Released,[1]; [5],2.14 µg
same,μg Release,[1]; [5],2.14 µg
same,μg Release per Hour,[1]; [5],4.28 μg per Hour
same,Total μg Released,"[1]; Sterilized stent, Time 3 Hours",3.84 µg
same,μg Release,"[1]; Sterilized stent, Time 3 Hours",1.7 µg
same,μg Release per Hour,"[1]; Sterilized stent, Time 3 Hours",0.68 μg per Hour
same,Total μg Released,"[1]; Sterilized stent, Time 4 Hours",4.12 µg
same,μg Release,"[1]; Sterilized stent, Time 4 Hours",0.28 µg
same,μg Release per Hour,"[1]; Sterilized stent, Time 4 Hours",0.28 μg per Hour
same,Total μg Released,"[1]; Sterilized stent, Time 6 Hours",4.38 µg
same,μg Release,"[1]; Sterilized stent, Time 6 Hours",0.26 µg
same,μg Release per Hour,"[1]; Sterilized stent, Time 6 Hours",0.13 μg per Hour
same,Total μg Released,[1]; [6],6.43 µg
same,μg Release,[1]; [6],2.05 µg
same,μg Release per Hour,[1]; [6],0.11 μg per Hour
same,Total microgram Released,[1]; Time 0 Hours,0 microgram
same,microgram Release per Hour,[1]; Time 0 Hours,0 microgram per Hour
same,microgram Released,"[1]; Time 0 Hours, pH 7.4, room temperature",0 microgram
same,Total microgram Released,[1]; Time 0.5 Hours,2.12 microgram
same,microgram Release per Hour,[1]; Time 0.5 Hours,4.24 microgram per Hour
same,microgram Released,[1]; Time 0.5 Hours,2.12 microgram
same,Total microgram Released,[1]; Time 3 Hours,4.03 microgram
same,microgram Release per Hour,[1]; Time 3 Hours,0.76 microgram per Hour
same,microgram Released,[1]; Time 3 Hours,1.91 microgram
same,Total microgram Released,[1]; Time 4 Hours,4.30 microgram
same,microgram Release per Hour,[1]; Time 4 Hours,0.27 microgram per Hour
same,microgram Released,[1]; Time 4 Hours,0.27 microgram
same,Total microgram Released,[1]; Time 6 Hours,4.68 microgram
same,microgram Release per Hour,[1]; Time 6 Hours,0.19 microgram per Hour
same,microgram Released,[1]; Time 6 Hours,0.38 microgram
same,Total microgram Released,[1]; Time 24 Hours,6.38 microgram
same,microgram Release per Hour,[1]; Time 24 Hours,0.09 microgram per Hour
same,microgram Released,[1]; Time 24 Hours,1.7 microgram
"Cc1c2oc3c(C)ccc(C(=O)N[C@@H]4C(=O)N[C@H](C(C)C)C(=O)N5CCC[C@H]5C(=O)N(C)CC(=O)N(C)[C@@H](C(C)C)C(=O)O[C@@H]4C)c3nc-2c(C(=O)N[C@@H]2C(=O)N[C@H](C(C)C)C(=O)N3CCC[C@H]3C(=O)N(C)CC(=O)N(C)[C@@H](C(C)C)C(=O)O[C@@H]2C)c(N)c1=O [actinomycin D] (I: T[dV]P[Sar][NMeV] / II: T[dV]P[Sar][NMeV]; ester I:1-I:C, II:1-II:C; linker I:N-II:N via Actinocin(9to1))",IC50,[2]; 2 h,0.001 µM
same,Percent Diameter Stenosis (QCA),[3]; DOSE 1 1E−05M (n = 10),36.8 +/− 9.7%
same,Percent Diameter Stenosis (QCA),[3]; DOSE 2 1E−04M (n = 7),32.3+/−11.7%
same,Percent Stenosis (IEL area-lumen area)/IEL area,[3]; DOSE 1 1E−05M (n = 30),51.8 +/− 13.8%
same,Residual Lumen (Lumen area)/IEL area,[3]; DOSE 1 1E−05M (n = 30),0.49 +/− 0.14
same,Percent Stenosis (IEL area-lumen area)/IEL area,[3]; DOSE 2 1E−04M (n = 21),54.1 +/− 11.7%
same,Residual Lumen (Lumen area)/IEL area,[3]; DOSE 2 1E−04M (n = 21),0.46 +/− 0.08
same,AVG % EEL growth,[4]; ActD vs EVOH,7.486%
same,AVG % IEL growth,[4]; ActD vs EVOH,13.18%
same,index of remodeling,"[4]; EEL area drug coated / EVOH control (8.54/7.94), 28 days",1.076
same,EEL Area AVG,[4]; [7],8.5425 mm^2
same,IEL Area AVG,[4]; [7],7.4727 mm2
same,EEL Area,[4]; [8],9.2545 mm^2 and 9.2515 mm^2 and 8.7854 mm^2 and 9.5164 mm^2 and 9.1504 mm^2 and 9.6679 mm^2 and 9.1237 mm^2 and 9.9849 mm^2 and 9.4765 mm^2 and 7.4424 mm^2 and 9.1462 mm^2 and 8.9504 mm^2 and 8.9117 mm^2 and 8.7533 mm^2 and 7.3249 mm^2 and 7.1061 mm^2 and 8.5830 mm^2 and 7.4498 mm^2 and 8.2509 mm^2 and 7.7342 mm^2 and 7.9207 mm^2 and 6.9926 mm^2 and 8.3883 mm^2 and 7.8546 mm^2
same,IEL Area,[4]; [8],8.3785 mm2 and 8.5819 mm2 and 8.0964 mm2 and 8.6879 mm2 and 8.0914 mm2 and 8.7181 mm2 and 8.0273 mm2 and 8.5222 mm2 and 8.3796 mm2 and 6.4219 mm2 and 7.7757 mm2 and 7.5392 mm2 and 7.6573 mm2 and 6.9749 mm2 and 6.2815 mm2 and 5.9760 mm2 and 7.6195 mm2 and 6.3785 mm2 and 7.5206 mm2 and 6.9992 mm2 and 6.9632 mm2 and 6.0418 mm2 and 7.4794 mm2 and 6.2324 mm2
CC(=O)O[C@@]12CO[C@@H]1C[C@H](O)[C@@]1(C)C(=O)[C@H](O)C3=C(C)[C@@H](OC(=O)[C@H](O)[C@@H](NC(=O)OC(C)(C)C)c4ccccc4)C[C@@](O)([C@@H](OC(=O)c4ccccc4)[C@H]21)C3(C)C [docetaxel],IC50,[2]; [9],1 µM
CO[C@@]12[C@H](COC(N)=O)C3=C(C(=O)C(C)=C(N)C3=O)N1C[C@@H]1N[C@@H]12 [mitomycin],IC50,[2]; [9],50 µM
